The target in data set [1] is T1, Indoleamine 2,3-dioxygenase 1 (Homo sapiens, UniProt P14902). Put plainly: Inhibition of IFNgamma-induced IDO1 in human HeLa cells using L-tryptophan as substrate after 24 hrs. The format is cell-based.
Target sequence in this assay (P14902 whole entry): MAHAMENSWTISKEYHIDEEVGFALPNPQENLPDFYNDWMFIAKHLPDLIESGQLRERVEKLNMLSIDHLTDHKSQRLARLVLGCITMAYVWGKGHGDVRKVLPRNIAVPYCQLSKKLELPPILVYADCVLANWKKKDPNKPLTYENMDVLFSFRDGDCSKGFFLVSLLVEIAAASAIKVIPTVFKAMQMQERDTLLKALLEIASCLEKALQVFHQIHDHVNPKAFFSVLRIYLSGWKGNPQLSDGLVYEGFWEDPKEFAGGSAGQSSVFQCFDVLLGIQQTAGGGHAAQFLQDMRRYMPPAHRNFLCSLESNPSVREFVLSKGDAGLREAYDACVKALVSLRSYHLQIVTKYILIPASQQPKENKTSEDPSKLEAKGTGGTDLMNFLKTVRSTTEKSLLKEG
Data set [2] concerns HeLa. Description: Cytotoxicity against human HeLa cells assessed as reduction in cell viability at 10 to 30 uM after 24 hrs by MTT assay. The format is cell-based.
Data set [3] deals with HeLa. Description: Inhibition of IFNgamma-induced IDO1 protein expression in human HeLa cells at IDO1 inhibitory IC50 after 24 hrs by Western blot method. The data set is classed as functional, cell-based.
Data set [4] deals with Indoleamine 2,3-dioxygenase 1 (Mus musculus) (UniProt P28776). Put plainly: Inhibition of IDO1 in mouse B16F1 cells co-cultured with Balb/c mouse T-cells assessed as reversal of IDO1-mediated suppression of T-cell proliferation at 30 uM after 48 hrs by MTT assay. The data set is classed as cell-based.
Chain of Indoleamine 2,3-dioxygenase 1 (Mus musculus) (P28776 whole entry, looked up): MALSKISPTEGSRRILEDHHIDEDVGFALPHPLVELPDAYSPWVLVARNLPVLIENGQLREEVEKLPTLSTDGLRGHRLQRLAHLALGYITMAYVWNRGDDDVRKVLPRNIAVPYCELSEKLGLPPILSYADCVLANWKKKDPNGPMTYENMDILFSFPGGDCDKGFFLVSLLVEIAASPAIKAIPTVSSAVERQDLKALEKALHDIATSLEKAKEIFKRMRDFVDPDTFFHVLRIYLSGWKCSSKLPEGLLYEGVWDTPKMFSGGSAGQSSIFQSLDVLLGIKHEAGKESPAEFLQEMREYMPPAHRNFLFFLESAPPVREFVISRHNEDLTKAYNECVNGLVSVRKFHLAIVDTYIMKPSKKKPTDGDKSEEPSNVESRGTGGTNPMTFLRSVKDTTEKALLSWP
Data set [5] shares this target. Put plainly: Inhibition of IDO1 in mouse B16F1 cells co-cultured with Balb/c mouse T-cells assessed as increase in IFN-gamma level at 30 uM after 48 hrs by ELISA. The data set is classed as cell-based.
The target is the same in data set [6]. Put plainly: Inhibition of IDO1 in mouse B16F1 cells co-cultured with Balb/c mouse T-cells assessed as decrease in differentiation of Treg cells by measuring CD4+/CD25+/FOXP3 cells at 30 uM by FITC/APC/PE staining based flow cytometry (reference value: 11.7%). The data set is classed as cell-based. Further details: scale not given: the % may be the effect or the level left.

Data set [7] addresses T1, Indoleamine 2,3-dioxygenase 1. Put plainly: Binding affinity to recombinant human IDO1 assessed as interaction with ferrous ion in enzyme active site by measuring absorbance maxima for ferrous heme at 2 mM by UV-Visible spectral analysis (reference value: 424 nanometer).
Target sequence in this assay (P14902 whole entry, looked up): as the sequence (P14902 whole entry) above
The target of data set [8] is Indoleamine 2,3-dioxygenase 1 (Mus musculus) (UniProt P28776). Description: Inhibition of IDO1 in mouse B16F1 cells co-cultured with Balb/c mouse T-cells assessed as reversal of IDO1-mediated suppression of T-cell proliferation at 18 uM after 48 hrs by MTT assay. The format is cell-based.
The target is the same in data set [9]. Put plainly: Inhibition of IDO1 in mouse B16F1 cells co-cultured with Balb/c mouse T-cells assessed as increase in IFN-gamma level at 18 uM after 48 hrs by ELISA. The format is cell-based.
Data set [10] shares this target. Put plainly: Inhibition of IDO1 in mouse B16F1 cells co-cultured with Balb/c mouse T-cells assessed as decrease in differentiation of Treg cells by measuring CD4+/CD25+/FOXP3 cells at 18 uM by FITC/APC/PE staining based flow cytometry (reference value: 11.7%). The format is cell-based. Further details: scale not given: the % may be the effect or the level left.
Data set [11] shares this target. Put plainly: Inhibition of IDO1 in mouse B16F1 cells co-cultured with Balb/c mouse T-cells assessed as reversal of IDO1-mediated suppression of T-cell proliferation at 1.5 uM after 48 hrs by MTT assay. The format is cell-based.
For data set [12] the target is unchanged. Description: Inhibition of IDO1 in mouse B16F1 cells co-cultured with Balb/c mouse T-cells assessed as increase in IFN-gamma level at 1.5 uM after 48 hrs by ELISA. The data set is classed as cell-based.

Calls of active or inactive are those of the source. No cut-off for these calls is given here.

In data set [1], `O=C(Cn1c(=O)oc2ccccc21)c1ccc(Cl)cc1` showed an IC50 of 38.6 µM. Also, the Activity result with HeLa [2] was “Non-Toxic”.

`Nc1nc2ccccc2n1C(=O)Cc1ccc(F)cc1`: the midpoint of inhibition in data set [1], the IC50, lay at 22.7 µM. The Activity entry with HeLa [2] is given as “Non-Toxic”.

As to `O=C(Cn1c(=O)oc2ccc(Cl)cc21)c1ccc(Cl)cc1`, in data set [1], the half-maximal inhibitory concentration (IC50) worked out at 24.9 µM. Further, the Activity entry in the data set on HeLa [2] is reported as “Non-Toxic”.

In turn, `O=C(Cn1c(=O)oc2ccc(Cl)cc21)c1cccc(Cl)c1` returned a half-maximal inhibitory concentration (IC50) in data set [1] of 76.6 µM. Further, in the data set on HeLa [2], the Activity result is given as “Non-Toxic”.

In [1], `O=c1oc2ccc(Cl)cc2n1CC(O)c1ccc(Cl)cc1` (stereo not drawn) had a concentration for half-maximal inhibition (IC50) of 62.7 µM. In addition, the Activity result in the data set with HeLa [2] is listed as “Non-Toxic”.

In the case of `O=c1oc2ccccc2n1Cc1ccc(Cl)cc1`, the IC50 in data set [1] is 35 µM. The Activity result in the data set with HeLa [2] is recorded as “Non-Toxic”.

Regarding `O=c1oc2ccc([N+](=O)[O-])cc2n1Cc1ccc(Cl)cc1`, the IC50 in data set [1] was found to be 99.3 µM. Further, the Activity entry with HeLa [2] is “Non-Toxic”.

Regarding `COc1ccc(CNC(=O)n2c(=O)oc3ccccc32)cc1`, in data set [1], the half-inhibitory concentration (IC50) is 31.8 µM. In addition, the Activity entry in the data set with HeLa [2] is listed as “Non-Toxic”.

Consider `O=c1oc2ccc(Cl)cc2n1Cc1cccc(F)c1`, for which the 50% inhibitory concentration (IC50) in [1] was 9.75 µM. Moreover, the Activity entry in the data set with HeLa [2] is “Non-Toxic”; in data set [6], 6%; in [7], 418 nm. The inhibition entry with HeLa [3] is “inactive”. In addition, the inhibition entry in [4] and in data set [5] was “Active” each time.

In [1], `Nc1ccc2oc(=O)n(Cc3cccc(F)c3)c2c1` gave a 50% inhibitory concentration (IC50) of more than 100 µM. Also, the Activity entry in the data set with HeLa [2] is “Non-Toxic”.

In data set [1], `O=c1oc2ccccc2n1Cc1cccc(F)c1` came in with a half-maximal inhibitory concentration (IC50) of 30.8 µM. Also, in the data set on HeLa [2], the Activity result was “Non-Toxic”.

In [1], `O=c1[nH]c2ccccc2n1CC(O)c1ccc(F)cc1` (stereo not drawn) registered a half-maximal inhibitory concentration (IC50) of 99.9 µM. The Activity result in the data set with HeLa [2] is “Non-Toxic”.

In turn, `O=C(c1ccccc1)n1c(=O)oc2ccccc21` yielded a 50% inhibitory concentration (IC50) in [1] of 90.5 µM. For the same compound, in the data set on HeLa [2], the Activity entry was “Non-Toxic”.

The compound `O=c1oc2ccc(F)cc2n1Cc1cccc(F)c1` gave a half-inhibitory concentration (IC50) in [1] of 28.5 µM. Also, the Activity result with HeLa [2] is reported as “Non-Toxic”.

As for `O=c1oc2ccccc2n1CCc1ccccc1`, the half-maximal inhibitory concentration (IC50) in data set [1] was more than 100 µM. Further, in the data set with HeLa [2], the Activity entry is “Non-Toxic”.

`O=c1oc2ccccc2n1CC(O)c1ccc(Cl)cc1` (stereo not drawn) came in with an IC50 in data set [1] of 50.8 µM. In addition, the Activity result in the data set with HeLa [2] is “Non-Toxic”.

Compound `COc1ccc(NC(=O)n2c(=O)oc3ccc(Cl)cc32)cc1` gave an IC50 in data set [1] of more than 100 µM. In addition, the Activity entry in the data set with HeLa [2] was “Non-Toxic”.

For the compound `O=C(Cc1ccc(F)cc1)n1c(=O)oc2ccc(Cl)cc21`, in [1], the midpoint of inhibition, the IC50, lay at 6.4 µM. For the same compound, the Activity entry in the data set with HeLa [2] is “Non-Toxic”; in data set [10], 7.1%. The inhibition entry in the data set with HeLa [3] is “inactive”. The inhibition result in data set [8] and in data set [9] was “Active” in each case.

As for `OC(CC1c2ccccc2-c2cncn21)C1CCCCC1` (racemic), the inhibition result in [11] and in [12] was “Active” in each case.

Turning to `O=c1oc2ccccc2n1CC(O)c1ccc(F)cc1` (stereo not drawn), the IC50 in data set [1] was determined as 49.3 µM. Also, in the data set on HeLa [2], the Activity result is “Non-Toxic”.

Take `O=c1oc2ccc(Cl)cc2n1CC(O)c1ccc(F)cc1` (stereo not drawn): it took 10.2 µM to reach half-maximal inhibition in [1] (IC50). Moreover, the Activity result with HeLa [2] is on record as “Non-Toxic”.

Compound `COc1cccc(CNC(=O)n2c(=O)oc3ccc(Cl)cc32)c1` showed an IC50 in data set [1] of 14.6 µM. Moreover, the Activity entry in the data set with HeLa [2] is reported as “Non-Toxic”.

For the compound `O=c1oc2ccc(Cl)cc2n1CCc1ccccc1`, the IC50 in data set [1] amounted to 17.9 µM. The Activity entry in the data set on HeLa [2] is on record as “Non-Toxic”.

In the case of `O=c1oc2ccc([N+](=O)[O-])cc2n1Cc1cccc(F)c1`, 99.8 µM corresponded to half-maximal inhibition in data set [1] (IC50). Besides, the Activity entry in the data set on HeLa [2] is on record as “Non-Toxic”.

The compound `O=C(Cn1c(=O)oc2ccccc21)c1cccc(Cl)c1` displayed an IC50 in data set [1] of 49.3 µM. The Activity result with HeLa [2] is listed as “Non-Toxic”.

For the compound `O=c1oc2ccccc2n1CC(O)c1cccc(Cl)c1` (stereo not drawn), the concentration for half-maximal inhibition (IC50) in data set [1] was 80.6 µM. For the same compound, in the data set on HeLa [2], the Activity entry is “Non-Toxic”.

On to `O=c1oc2ccc(F)cc2n1Cc1ccc(Cl)cc1`, for which the 50% inhibitory concentration (IC50) in data set [1] was 80.8 µM. For the same compound, the Activity result in the data set with HeLa [2] is “Non-Toxic”.

`O=c1oc2ccc(Cl)cc2n1Cc1ccc(Cl)cc1` yielded a 50% inhibitory concentration (IC50) in [1] of 6.08 µM. The figures for the Activity entry (in the data set with HeLa [2]; in [10]; in data set [7]) were “Non-Toxic”, 8.7% and 418 nm, respectively. In addition, in the data set with HeLa [3], the inhibition result is “inactive”. Moreover, in data set [8], the inhibition is 52%. The inhibition result in data set [9] was “Active”.

`O=c1oc2ccc(Cl)cc2n1CC(O)c1cccc(Cl)c1` (stereo not drawn) came in with an IC50 in data set [1] of 60.9 µM. Besides, the Activity entry in the data set with HeLa [2] is recorded as “Non-Toxic”.

The compound `O=C(Cn1c(=O)oc2ccc(Cl)cc21)c1ccc(F)cc1` gave an IC50 in [1] of 20.7 µM. Moreover, in the data set on HeLa [2], the Activity result is “Non-Toxic”.

In data set [1], `O=C(Cn1c(=O)oc2ccccc21)c1ccc(F)cc1` showed an IC50 of 53.1 µM. For the same compound, in the data set on HeLa [2], the Activity entry is reported as “Non-Toxic”.

The compound `O=C(Cc1ccc(F)cc1)n1c(=O)oc2ccccc21` displayed an IC50 in [1] of more than 100 µM. Further, the Activity result in the data set on HeLa [2] is “Non-Toxic”.

The record behind these values is ChEMBL document CHEMBL4190238, “Discovery of potent IDO1 inhibitors derived from tryptophan using scaffold-hopping and structure-based design approaches” (Eur J Med Chem, 2017).
